Laboratory results taken from PMC2851732, “Peptide Inhibitors of Dengue-Virus Entry Target a Late-Stage Fusion Intermediate” (PLoS Pathogens, 2010).
Ends that are not written are not given here.

What follows are sequences tested against T1, DV2 sE(1–395) postfusion trimer (Dengue virus type 2, UniProt P12823) (assay: Fluorescence polarization binding of FITC-tagged stem peptides to postfusion sE trimer).
T1 construct: The sE component (residues 1–395) of the ectodomain is in ribbon representation; purchased Hawai'i Biotech
Design: species or system dengue virus serotype 2

Sequence	IC50
AWDFGSLGGVFTSIGKALHQVF [DV2^419-440]	250 nM
AILGDTAWDFGSLGGVFTSIGKALHQVF [DV2^413-440]	250 nM
AILGDTAWDFGSLGGVFTSIGKA [DV2^413-435]	2000 nM
